Assay results from ChEMBL document CHEMBL1201862, “PubChem BioAssay data set” (2004).
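Cultured in 96-well plates, cells were exposed to test compound for 48 hours across five concentrations. GI50 = concentration required for 50% inhibition of growth.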 The source made the active and inactive calls. No stated cut-off is given here; in the data, active = GI50 up to about 1.1 µM and inactive = higher.

Assays:
Assay in all cases: NCI anticancer screen, dose series, 48 h
RPMI-8226 = test system: RPMI-8226
HL-60 = test system: HL-60
TK-10 = test system: TK-10
M14 = test system: M14
NCI-H23 = test system: NCI-H23
LOX IMVI = test system: LOX IMVI
SW-620 = test system: SW-620
786-0 = test system: 786-0
OVCAR-8 = test system: OVCAR-8
DU-145 = test system: DU-145
SF-539 = test system: SF-539
MDA-MB-435 = test system: MDA-MB-435
MDA-MB-231 = test system: MDA-MB-231
SF-268 = test system: SF-268
IGROV-1 = test system: IGROV-1
MCF7 = test system: MCF7
K562 = test system: K562
SF-295 = test system: SF-295
U-251 = test system: U-251
A498 = test system: A498

Measured: GI50

O=C(O)CSC1=NC(=O)C2(NN1)c1ccccc1-c1ccccc12
inactive: RPMI-8226 > 10 µM | HL-60 > 10 µM | TK-10 > 10 µM | M14 > 10 µM | NCI-H23 > 10 µM | LOX IMVI > 10 µM | SW-620 > 10 µM | 786-0 > 10 µM | OVCAR-8 > 10 µM | DU-145 > 10 µM | SF-539 > 10 µM | MDA-MB-435 > 10 µM | MDA-MB-231 > 10 µM | SF-268 > 10 µM | IGROV-1 > 10 µM | MCF7 > 10 µM | K562 > 10 µM | SF-295 > 10 µM

CC1CN=C(Nc2cccc(F)c2)S1 (centres undefined)
inactive: RPMI-8226 > 100 µM | HL-60 > 100 µM | TK-10 > 100 µM | M14 > 100 µM | NCI-H23 > 100 µM | LOX IMVI > 100 µM | SW-620 > 100 µM | 786-0 > 100 µM | OVCAR-8 > 100 µM | U-251 > 100 µM | DU-145 > 100 µM | SF-539 > 100 µM | MDA-MB-435 > 100 µM | MDA-MB-231 3.99 µM | SF-268 > 100 µM | IGROV-1 > 100 µM | MCF7 > 100 µM | K562 > 100 µM | SF-295 > 100 µM

CCCCCCCCCCCCCCCCOCC(CC(F)(F)P(=O)(OCC)OCC)OC(C)=O (centres undefined)
inactive: RPMI-8226 25.1 µM | TK-10 14 µM | M14 17.9 µM | NCI-H23 16.9 µM | SW-620 14.8 µM | 786-0 10.8 µM | A498 12.5 µM | U-251 2.72 µM | DU-145 15.4 µM | MDA-MB-435 18.6 µM | MDA-MB-231 14.9 µM | SF-268 12.6 µM | IGROV-1 8.49 µM | MCF7 15.8 µM | K562 14.1 µM | SF-295 11.6 µM

CCCC(=O)NC(Nc1cc(C)ccn1)(C(=O)OCC)C(F)(F)F (centres undefined)
inactive: RPMI-8226 > 100 µM | HL-60 > 100 µM | TK-10 > 100 µM | M14 > 100 µM | NCI-H23 > 100 µM | LOX IMVI > 100 µM | SW-620 > 100 µM | 786-0 > 100 µM | OVCAR-8 > 100 µM | U-251 > 100 µM | DU-145 > 100 µM | SF-539 > 100 µM | MDA-MB-435 > 100 µM | MDA-MB-231 > 100 µM | SF-268 > 100 µM | IGROV-1 > 100 µM | MCF7 > 100 µM | K562 > 100 µM | SF-295 > 100 µM

CCOC(=O)C(C)c1nc2cc(F)c(N3CCOCC3)cc2[nH]c1=O (centres undefined)
inactive: RPMI-8226 83.6 µM | TK-10 > 100 µM | M14 > 100 µM | NCI-H23 > 100 µM | SW-620 > 100 µM | 786-0 > 100 µM | A498 > 100 µM | OVCAR-8 > 100 µM | U-251 > 100 µM | DU-145 > 100 µM | SF-539 > 100 µM | MDA-MB-435 > 100 µM | MDA-MB-231 > 100 µM | SF-268 > 100 µM | IGROV-1 > 100 µM | MCF7 > 100 µM | K562 > 100 µM | SF-295 > 100 µM

[O-][S+](Nc1ccccc1)c1ccccc1Oc1ccccc1 (centres undefined)
inactive: RPMI-8226 43.3 µM | HL-60 25.5 µM | TK-10 > 100 µM | M14 24.5 µM | NCI-H23 29.8 µM | LOX IMVI 19.7 µM | SW-620 > 100 µM | 786-0 24.7 µM | OVCAR-8 26.9 µM | U-251 22 µM | DU-145 > 100 µM | SF-539 14.6 µM | MDA-MB-435 40.8 µM | MDA-MB-231 36.2 µM | SF-268 16.3 µM | IGROV-1 2.62 µM | MCF7 60 µM | K562 48.6 µM | SF-295 28.2 µM
